Drawing on patent US20250282782A1, “PYRAZOLOPYRAZINE COMPOUNDS AS SHP2 INHIBITORS” (Genzyme Corporation, priority 2021, published 2025), this text covers IC50 for three molecules.

This assay concerns the target human recombinant 6His-Nterm SHP2 full-length (Thr2-Arg593) (Homo sapiens (Human), UniProt Q06124). Put plainly: SHP2 phosphatase assay (DiFMUP substrate, activating peptide). It counts as biochemical. The procedure:
Inhibition of SHP2 phosphatase activity was evaluated using human recombinant 6His-Nterm (SEQ ID NO: 1) SHP2 full-length (Thr2-Arg593, R&D system), NsCs bi-phosphorylated activating peptide (NH2-LN(pY)AQLWHA(PEG8)LTI(pY)ATIRRF-Amide.acetate (SEQ ID NO: 2), Thermofischer Scientific) and DiFMUP as surrogate phosphatase substrate (Molecular Probes). All reactions were performed at room temperature in 384-well black polystyrene non-binding plate (Corning) with the assay buffer (50 mM HEPES-NaOH pH 7.2, 100 mM NaCl, 0.5 mM EDTA, 0.001% Brij35 including 0.02% BSA and 1 mM DTT added extemporaneously). SHP2 was pre-incubated at least 10 min with the activating peptide (0.2 nM and 100 nM, respectively). 10 μL of this mixture was added to the assay plate, that already contained 15 nL of the compound (1000-0.05 nM). After 30 min pre-incubation, the enzymatic reaction was initiated by the addition of 5 μL DiFMUP in assay buffer without BSA (20 μM). The reaction was stopped by the addition of 15 μL sodium pervanadate solution (100 μM) after 45 min incubation. The fluorescence signal was measured at excitation and emission wavelengths of 350 nm and 450 nm, respectively, using a Pherastar instrument (BMG-LabTech). Percentage of inhibition (I %) were calculated from the fluorescence signal at 450 nm of the positive and negative control using the following formula: […]
Positive control (Max): corresponds to the maximum fluorescence signal obtained in the presence of 15 nL DMSO replacing the inhibitor in the pre-incubation step.
Negative control (Min): corresponds to the minimum signal obtained in the presence of 1 μM of RMC-4550, the structure of which is shown below:
The IC50 were then calculated from a dose-response curve of 10 concentrations of tested compound using the 4-parameter logistic model:
The parameters A and (A+C) are the lower and upper limits, B is the slope of the curve at the inflexion point, M parameter is the logarithm of the abscissa at the inflexion point, and X is the concentration of compound.

[1] abbreviates: full-length SHP2 0.2 nM pre-activated with bi-phosphorylated peptide 100 nM, DiFMUP 20 μM, 10-concentration dose-response.

Chain of human recombinant 6His-Nterm SHP2 full-length (Thr2-Arg593) (Q06124 2-593): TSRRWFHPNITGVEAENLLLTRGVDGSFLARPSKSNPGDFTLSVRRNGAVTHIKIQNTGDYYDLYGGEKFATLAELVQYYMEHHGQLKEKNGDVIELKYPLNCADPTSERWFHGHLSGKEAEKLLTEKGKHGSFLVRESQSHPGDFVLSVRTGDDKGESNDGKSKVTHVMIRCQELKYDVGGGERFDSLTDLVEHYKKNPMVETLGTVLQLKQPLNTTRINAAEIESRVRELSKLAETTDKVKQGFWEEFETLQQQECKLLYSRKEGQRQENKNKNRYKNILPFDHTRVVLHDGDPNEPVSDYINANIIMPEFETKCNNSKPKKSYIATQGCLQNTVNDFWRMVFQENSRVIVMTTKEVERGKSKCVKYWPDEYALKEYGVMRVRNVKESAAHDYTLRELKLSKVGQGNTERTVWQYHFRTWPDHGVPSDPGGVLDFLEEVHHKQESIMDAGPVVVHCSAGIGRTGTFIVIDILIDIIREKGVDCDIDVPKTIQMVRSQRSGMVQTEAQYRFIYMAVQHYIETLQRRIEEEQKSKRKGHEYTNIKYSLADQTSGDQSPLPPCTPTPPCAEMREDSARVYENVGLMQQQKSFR

With `Cc1nc(N2CCC3(CC2)Cc2ccncc2[C@H]3N)c2ccnn2c1-c1cnn(C)c1C` [Compound 133, (7S)-1′-[7-(1,5-dimethylpyrazol-4-yl)-6-methyl-pyrazolo[1,5-a]pyrazin-4-yl]spiro[5,7-dihydrocyclopenta[c]pyridine-6,4′-piperidine]-7-amine], the IC50 – broadly, the concentration at which inhibition is half-maximal – came out at 21 nM (Table 11 summary) and 21 nM under setting [1].

Take `COc1cc2c(cn1)CC1(CCN(c3nc(C)c(-c4cnn(C)c4C)n4nccc34)CC1)[C@@H]2N` [Compound 132, (5S)-1′-[7-(1,5-dimethylpyrazol-4-yl)-6-methyl-pyrazolo[1,5-a]pyrazin-4-yl]-3-methoxy-spiro[5,7-dihydrocyclopenta[c]pyridine-6,4′-piperidine]-5-amine]: the concentration for half-maximal inhibition (IC50) is 34 nM (Table 11 summary) and 34 nM under setting [1].

For the molecule `Cc1nc(N2CCC3(CC2)Cc2ncccc2[C@H]3N)c2c(CO)cnn2c1-c1ccccc1F` [Compound 226, [4-[(5S)-5-aminospiro[5,7-dihydrocyclopenta[b]pyridine-6,4′-piperidine]-1′-yl]-7-(2-fluorophenyl)-6-methyl-pyrazolo[1,5-a]pyrazin-3-yl]methanol], the IC50 by setting is: (Table 11 summary) > 1000 nM; under setting [1], > 1000 nM.
